Measurements reported in patent publication US5663182A, “Antipsychotic method” (priority 1996, dated 1997).
Structures can show the parent of a compound that is named as a salt.

Experiments:
Rats = assay: Conditioned avoidance behavior in rats; type: in vivo, rat; settings: screening dose 3.0 mg/kg s.c. 30 min before session
From the text: In a conditioned avoidance test, animals learn to respond during a conditioned stimulus in order to avoid mild shock presentation. A response during the conditioned stimulus is termed an avoidance respone, a response during shock is termed an escape response; a response failure is when the animal fails to respond during either the conditioned stimlus or the shock presentation and is indicative of motor impairment. […] Antipsychotic drugs decrease the percentage of avoidance responses without interfering with the ability of the animal to respond since the animals do emit escape responses. The percentage of response failures is considered a measure of motor impairment.
Rats were required to press a response lever in an experimental chamber in order to avoid or escape foot-shock. Each experimental session consisted of 50 trials. During each trial, the chamber was illuminated and a tone presented for a maximum of 10 sec. A response during the tone immediately terminated the tone and the houselight, ending the trial. In the absence of a response during the tone alone, tone+foot-shock (2.0 mA) was presented for a maximum of 10 sec. A response during shock presentation immediately terminated the shock, the tone and the houselight, ending the trial.
For drug screening, a dose of 3.0 mg/kg was administered s.c. 30 min before the start of the experimental session.

muscarinic receptors = assay: 3H-oxotremorine-M binding assay; settings: 3 nM 3H-oxotremorine-M, rat cerebral cortical membranes, 15 min 25° C.; read-out: Inhibition of 3H-Oxo
Experimental: Each compound was tested to determine the affinity of the compound for the muscarinic receptors using the following procedure.
For each in vitro binding, male Sprague-Dawley (Harlan Sprague-Dawley, Indianapolis, Ind.) rats weighing from about 100 to about 150 grams each were sacrificed by decapitation. The brains were quickly removed and the cerebral cortex were dissected from the brain. The cerebral cortex tissue was homogenized in 10 volumes of 0.32 M sucrose and […] about 10 minutes at about 1000 x g. The supernatant was centrifuged at about 12,000 x g for about 10 minutes and the resulting pellet was resuspended in 20 mM tris-Cl, pH 7.4. The resuspended pellet was centrifuged again for about 10 minutes at about 50,000 x g. The resulting homogenate was preincubated for about 10 minutes at about 25° C. and centrifuged again for about 10 minutes at about 50,000 x g. The pellet was resuspended at 1 gram of pellet per 3 ml of buffer and frozen at about -80° C. until used.
The aforementioned homogenates mixture was incubated for about 15 minutes at about 25° C. and then the homogenates were filtered through glass filters (Whatman, GF/C) with vacuum. The filters were washed 3 times with about 2 ml of cold tris-Cl buffer, and placed in scintillation vials containing about 10 ml of scintillation fluid (Ready Protein+, Beckman, Fullerton, Calif.). Radioactivity trapped on the filters was determined by liquid scintillation spectrometry. Nonspecific binding was determined using 1 μM atropine. […] DeLean, A. et al. Am.

| Structure (SMILES) | Conditioned Avoidance % Avoidance Responses (Rats) | IC50 (muscarinic receptors) | Conditioned Avoidance % Avoidance Responses (Rats; 3 mg/kg) |
| --- | --- | --- | --- |
| CCOc1nsnc1[C@H]1CN2CCC[C@H]1C2 (relative stereo) [Compound 19, Exo-6-(3-ethoxy-1,2,5-thiadiazol-4-yl)-1-azabicyclo[3.2.1]octane oxalate] | 73% | 1.2 nM |  |
| CCCCCCSc1nsnc1[C@H]1CN2CCC[C@H]1C2 (relative stereo) [Compound 29, Exo-6-(3-hexylthio-1,2,5-thiadiazol-4-yl)-1-azabicyclo[3.2.1]octane oxalate] | 29% | 1.2 nM |  |
| CCCCSc1nsnc1[C@H]1CN2CCC[C@H]1C2 (relative stereo) [Compound 30, Exo-6-(3-butylthio-1,2,5-thiadiazol-4-yl)-1-azabicyclo[3.2.1]octane oxalate] | 32% | 0.4 nM |  |
| CCCCCSc1nsnc1[C@H]1CN2CCC[C@H]1C2 (relative stereo) [Compound 31, Exo-6-(3-pentylthio-1,2,5-thiadiazol-4-yl)-1-azabicyclo[3.2.1]octane oxalate] | 1% | 1.8 nM |  |
| CCSc1nsnc1[C@H]1CN2CCC[C@H]1C2 (relative stereo) [Compound 32, Exo-6-(3-ethylthio-1,2,5-thiadiazol-4-yl)-1-azabicyclo[3.2.1]octane oxalate] | 46% | 1.3 nM |  |
| CCCSc1nsnc1[C@H]1CN2CCC[C@H]1C2 (relative stereo) [Compound 58, Exo-6-(3-propylthio-1,2,5-thiadiazol-4-yl)-1-azabicyclo[3.2.1]octane oxalate] | 41% | 0.8 nM |  |
| CCCCCOc1nsnc1[C@H]1CN2CCC[C@H]1C2 (relative stereo) [Compound 59, Exo-6-(3-pentyloxy-1,2,5-thiadiazol-4-yl)-1-azabicyclo[3.2.1]octane oxalate] | 12% | 1 nM |  |
| CSc1nsnc1[C@H]1CN2CCC[C@H]1C2 (relative stereo) [Compound 74, Exo-6-(3-methylthio-1,2,5-thiadiazol-4-yl)-1-azabicyclo[3.2.1]octane oxalate] | 22% | 1.4 nM |  |
| CC(C)CCCSc1nsnc1[C@H]1CN2CCC[C@H]1C2 (relative stereo) [Compound 76, Exo-6-(3-isohexylthio-1,2,5-thiadiazol-4-yl)-1-azabicyclo[3.2.1]octane oxalate] | 28% | 7.7 nM |  |
| CC(C)CCSc1nsnc1[C@H]1CN2CCC[C@H]1C2 (relative stereo) [Compound 77, Exo-6-(3-isopentylthio-1,2,5-thiadiazol-4-yl)-1-azabicyclo[3.2.1]octane] | 85% | 2.7 nM |  |
| N#Cc1ccc(CSc2nsnc2[C@H]2CN3CCC[C@H]2C3)cc1 (relative stereo) [Compound 82, Exo-6-(3-(4-cyanobenzylthio)-1,2,5-thiadiazol-4-yl)-1-azabicyclo[3.2.1]octane oxalate] | 24% | 1.3 nM |  |
| CCCOc1nsnc1[C@H]1CN2CCC[C@H]1C2 (relative stereo) [Compound 119, Exo-6-(3-propoxy-1,2,5-thiadiazol-4-yl)-1-azabicyclo[3.2.1]octane oxalate] | 29% | 0.9 nM |  |
| CCCCOc1nsnc1[C@H]1CN2CCC[C@H]1C2 (relative stereo) [Compound 120, Exo-6-(3-butoxy-1,2,5-thiadiazol-4-yl)-1-azabicyclo[3.2.1]octane oxalate] | 27% | 0.9 nM |  |
| CCCCCCOc1nsnc1[C@H]1CN2CCC[C@H]1C2 (relative stereo) [Compound 122, Exo-6-(3-hexyloxy-1,2,5-thiadiazol-4-yl)-1-azabicyclo[3.2.1]octane oxalate] | 1% | 2.1 nM |  |
| c1ccc(OCCSc2nsnc2[C@H]2CN3CCC[C@H]2C3)cc1 (relative stereo) [Compound 133, Exo-6-(3-(2-phenoxyethylthio)-1,2,5-thiadiazol-4-yl)-1-azabicyclo[3.2.1]octane oxalate] | 1% | 1.3 nM |  |
| CCCCSc1nsnc1C1CN2CCC1CC2.O=C(O)C(O)C(O)C(=O)O (single isomer, unassigned) [Compound 56, (+) 3-(3-Butylthio-1,2,5-thiadiazol-4-yl)-1-azabicyclo[2.2.2]octane (-)D-tartrate] | 6% | 0.4 nM |  |
| CCCCSc1nsnc1C1CN2CCCC1C2 (single isomer, unassigned) [Compound 111, (-)-Exo-6-(3-butylthio-1,2,5-thiadiazol-4-yl)-1-azabicyclo[3.2.1]octane (+) L-tartrate] |  | 1 nM | 8% |
| CCCCSc1nsnc1C1CN2CCCC1C2 (single isomer, unassigned) [Compound 112, (+)-Exo-6-(3-butylthio-1,2,5-thiadiazol-4-yl)-1-azabicyclo[3.2.1]octane (-) D-tartrate] |  | 0.6 nM | 2% |
| CCCSc1nsnc1C1CN2CCCC1C2 (single isomer, unassigned) [Compound 114, (+)-Exo-6-(3-propylthio-1,2,5-thiadiazol-4-yl)-1-azabicyclo[3.2.1]octane (-) D-tartrate] |  | 0.45 nM | 39% |
| CCCSc1nsnc1C1CN2CCCC1C2 (single isomer, unassigned; (+)) [Compound 113, (+)-Exo-6-(3-propylthio-1,2,5-thiadiazol-4-yl)-1-azabicyclo[3.2.1]octane (+) L-tartrate] |  | 0.8 nM | 19% |
| FC(F)(F)CCCSc1nsnc1C1CN2CCCC1C2 (single isomer, unassigned; (+)) [Compound 167, (+)-Exo-6-(3-(4,4,4-trifluorobutylthio)-1,2,5-thiadiazol-4-yl)-1-azabicyclo-[3.2.1]octane oxalate] |  | 0.76 nM | 56% |
| FC(F)(F)CCCSc1nsnc1C1CN2CCCC1C2 (single isomer, unassigned; (-)) [Compound 130, (-)-Exo-6-(3-(4,4,4-trifluoro-1-butylthio)-1,2,5-thiadiazol-4-yl)-1-azabicyclo[3.2.1]octane oxalate] |  | 1.8 nM | 43% |
| CCOc1nsnc1C1CN2CCC1CC2.O=C(O)/C=C/C(=O)O (stereo not shown) [Compound 9, 3-(3-Ethoxy-1,2,5-thiadiazol-4-yl)-1-azabicyclo[2.2.2]octane fumarate] | 65% | 2.1 nM |  |
| CCCCCCOc1nsnc1C1CN2CCC1CC2.O=C(O)/C=C/C(=O)O (stereo not shown) [Compound 11, 3-(3-Hexyloxy-1,2,5-thiadiazol-4-yl)-1-azabicyclo[2.2.2]octane fumarate] | 11% | 6 nM |  |
| CCCCSc1nsnc1C1CN2CCC1CC2.O=C(O)/C=C/C(=O)O (stereo not shown) [Compound 13, 3-(3-Butylthio-1,2,5-thiadiazol-4-yl)-1-azabicyclo[2.2.2]octane fumarate] | 18% | 1.9 nM |  |
| CCCCOc1nsnc1C1CN2CCC1CC2.O=C(O)C(=O)O (stereo not shown) [Compound 46, 3-(3-Butoxy-1,2,5-thiadiazol-4-yl)-1-azabicyclo[2.2.2]octane oxalate] | 30% | 1.6 nM |  |
| CCSc1nsnc1C1CN2CCC1CC2.O=C(O)C(=O)O (stereo not shown) [Compound 52, 3-(3-Ethylthio-1,2,5-thiadiazol-4-yl)-1-azabicyclo[2.2.2]octane oxalate] | 63% | 1.8 nM |  |
| CCCSc1nsnc1C1CN2CCC1CC2.O=C(O)C(=O)O (stereo not shown) [Compound 53, 3-(3-Propylthio-1,2,5-thiadiazol-4-yl)-1-azabicyclo[2.2.2]octane oxalate] | 41% | 0.9 nM |  |
| O=C(O)/C=C/C(=O)O.c1ccc(OCCSc2nsnc2C2CN3CCC2CC3)cc1 (stereo not shown) [Compound 102, 3-(3-(2-Phenoxyethylthio)-1,2,5-thiadiazol-4-yl)-1-azabicyclo[2.2.2]octane fumarate] | 3% | 4.5 nM |  |
